Measured values: patent US7217865B2, “Transgenic high tryptophan plants” (Monsanto Technology LLC, priority 2001, dated 2007)
Like-named read-outs stand apart in the source and are kept apart here.

Legend:
[1] = biological target: Agrobacterium tumefaciens anthranilate synthase variant V48F, SEQ ID NO:58 (Agrobacterium fabrum, UniProt A9CI26, V48F); test: Anthranilate synthase enzyme assay and kinetic analysis, V48F mutant; assay type: biochemical
Description: (§1) Site directed mutagenesis was used to generate ten single amino acid substitutions six sites. The mutations were introduced into the Agrobacterium tumefaciens AS in pMON34705 using the QuikChange™ Site-Directed Mutagenesis Kit (Stratagene). The primers used for site directed mutagenesis were SEQ ID NO:9–42 (FIG. 7; F=forward, R=reverse). Each primer sequence is specific for alteration of the nucleic acid at a specific location in the sequence and thus changing the encoded codon to code for a new amino acid. For example, S51C designates a change from serine to cysteine at amino acid position 51 in the Agrobacterium tumefaciens AS peptide sequence.
(§2) Following mutagenesis the sequence of the entire gene was reconfirmed and the variants expressed and purified from E. coli as described below for the wild type enzyme. The resultant plasmids comprising mutant Agrobacterium tumefaciens AS are suitably cloned into a plasmid for overproduction of protein using the T7 expression system as described in Example 1.
(§3) Agrobacterium tumefaciens AS wild type and mutant enzymes were expressed in E. coli as described in Example 1. The purification of all the Agrobacterium tumefaciens AS enzymes, including wild type and mutants therof, was performed at 4° C. The cells (approximate wet weight of 1 g) were suspended in 20 ml of purification buffer (50 mM potassium phosphate, pH […], 10 mM 2-mercaptoethanol, 10% glycerol) and lysed by ultrasonication (Branson sonifier Cell Disruptor, W185). Supernatant was collected after centrifugation of the homogenate at 20,000× g for 15 min. The supernatant was subjected to ammonium sulfate fractionation (30 to 65% saturation). The precipitate was collected after centrifugation at 20,000× g for […] and dissolved in 3 ml of the purification buffer and then loaded as a whole on an Econo-Pac 10DG desalting column, pre-equilibrated with the same buffer. Fractions containing the enzyme were detected by the developed assay and pooled. The pooled enzyme (4.3 mls) was loaded on a 10 ml DEAE Sephacel (Pharmacia Biotech) column (1.5×7.5 cm) equilibrated with the same buffer. The column was washed with 30 ml of the purification buffer and the enzyme was eluted with 30 ml of 50 mM NaCl in the same buffer. Fractions containing high AS activity were pooled and precipitated by 65% ammonium sulfate saturation and isolated and desalted as above. Fractions containing the enzyme were pooled and stored at −80° C.
(§4) The standard assay for Agrobacterium tumefaciens AS was performed at 25° C. in an assay buffer containing 100 mM potassium phosphate, pH 7.0, 1 0 mM MgCl2, 1 mM dithiothreitol, 200 μM chorismate and 10 mM L-glutamine. The reaction was started by adding 30 μl of enzyme to the reaction mixture and mixing. The formation of anthranilate was directly monitored by the absorbance increase at […] for 3 min. Initial rate of reaction was calculated as unit absorbance increase per second based on the slope of the absorbance change over the reaction time. Km for chorismate (Km^Cho) was determined in the total volume of 1 ml assay buffer containing 100 mM potassium phosphate, pH 7.0, 10 mM MgCl2, 1 mM dithiothreitol with 10 mM L-glutamine and varying the concentration of chorismate between 2.5–100 μM chorismate. […] Kinetic parameters and IC50 of AS were calculated after fitting the data to a non-linear regression program (GraFit).

[2] = biological target: Agrobacterium tumefaciens anthranilate synthase variant S50K, SEQ ID NO:69 (Agrobacterium fabrum, UniProt A9CI26, S50K); test: Anthranilate synthase enzyme assay and kinetic analysis, S50K mutant; assay type: biochemical
Description: as §1, §2, §3, §4

[3] = biological target: Agrobacterium tumefaciens anthranilate synthase variant N52F, SEQ ID NO:62 (Agrobacterium fabrum, UniProt A9CI26, N52F); test: Anthranilate synthase enzyme assay and kinetic analysis, N52F mutant; assay type: biochemical
Description: as §1, §2, §3, §4

[4] = biological target: Agrobacterium tumefaciens anthranilate synthase variant S51F, SEQ ID NO:60 (Agrobacterium fabrum, UniProt A9CI26, S51F); test: Anthranilate synthase enzyme assay and kinetic analysis, S51F mutant; assay type: biochemical
Description: as §1, §2, §3, §4

[5] = biological target: Agrobacterium tumefaciens anthranilate synthase (AgroAS), wild type, SEQ ID NO:4 (Agrobacterium fabrum, UniProt A9CI26); test: Anthranilate synthase enzyme assay and kinetic analysis, wild type; assay type: biochemical
Procedure: as §3
The standard assay for Agrobacterium tumefaciens AS was performed at 25° C. in an assay buffer containing 100 mM potassium phosphate, pH 7.0, 1 0 mM MgCl2, 1 mM dithiothreitol, 200 μM chorismate and 10 mM L-glutamine. The reaction was started by adding 30 μl of enzyme to the reaction mixture and mixing. The formation of anthranilate was directly monitored by the absorbance increase at […] for 3 min. Initial rate of reaction was calculated as unit absorbance increase per second based on the slope of the absorbance change over the reaction time. Km for chorismate (Km^Cho) was determined in the total volume of 1 ml assay buffer containing 100 mM potassium phosphate, pH 7.0, 10 mM MgCl2, 1 mM dithiothreitol with 10 mM L-glutamine and varying the concentration of chorismate between 2.5–100 μM chorismate. The Km for glutamine (Km^Gln) was determined in the total volume of 1 ml assay buffer containing 100 mM potassium phosphate, pH 7.0, 10 mM MgCl2, 1 mM dithiothreitol with 200 μM chorismate and varying the concentration of L-glutamine between 0.1–2 mM L-glutamine. IC50 for tryptophan (IC50TrP) was determined with in the total volume of 1 ml assay buffer containing 100 mM potassium phosphate, pH 7.0, 10 mM MgCl2, 1 mM dithiothreitol, 10 mM L-glutamine, 200 μM chorismate and varying the concentration of L-tryptophan between 0.1–10 mM L-tryptophan. Kinetic parameters and IC50 of AS were calculated after fitting the data to a non-linear regression program (GraFit).

[6] = biological target: Agrobacterium tumefaciens anthranilate synthase variant P293A, SEQ ID NO:63 (Agrobacterium fabrum, UniProt A9CI26, P293A); test: Anthranilate synthase enzyme assay and kinetic analysis, P293A mutant; assay type: biochemical
Description: as §1, §2, §3, §4

[7] = biological target: Agrobacterium tumefaciens anthranilate synthase variant P293G, SEQ ID NO:64 (Agrobacterium fabrum, UniProt A9CI26, P293G); test: Anthranilate synthase enzyme assay and kinetic analysis, P293G mutant; assay type: biochemical
Description: as §1, §2, §3, §4

[8] = biological target: Agrobacterium tumefaciens anthranilate synthase variant V48Y, SEQ ID NO:59 (Agrobacterium fabrum, UniProt A9CI26, V48Y); test: Anthranilate synthase enzyme assay and kinetic analysis, V48Y mutant; assay type: biochemical
Description: as §1, §2, §3, §4

[9] = biological target: Agrobacterium tumefaciens anthranilate synthase variant S51C, SEQ ID NO:61 (Agrobacterium fabrum, UniProt A9CI26, S51C); test: Anthranilate synthase enzyme assay and kinetic analysis, S51C mutant; assay type: biochemical
Description: as §1, §2, §3, §4

[10] = test system: C=C(O[C@@H]1C=C(C(=O)O)C=C[C@H]1O)C(=O)O; test: Anthranilate synthase enzyme assay and kinetic analysis, V48F mutant; assay type: biochemical, Agrobacterium tumefaciens; details: other: V48F, pH 7.0, 10 mM L-glutamine, 2.5–100 μM chorismate, 25.0 °C
Description: as §1, §2, §3, §4

NC(=O)CC[C@H](N)C(=O)O [11] = test: as above; assay type: biochemical, Agrobacterium tumefaciens; details: other: V48F, pH 7.0, 200 μM chorismate, 0.1–2 mM L-glutamine, 25.0 °C
Description: as §1, §2, §3, §4

[12] = test system: C=C(O[C@@H]1C=C(C(=O)O)C=C[C@H]1O)C(=O)O; test: Anthranilate synthase enzyme assay and kinetic analysis, V48Y mutant; assay type: biochemical, Agrobacterium tumefaciens; details: other: V48Y, pH 7.0, 10 mM L-glutamine, 2.5–100 μM chorismate, 25.0 °C
Description: as §1, §2, §3, §4

NC(=O)CC[C@H](N)C(=O)O [13] = test: as above; assay type: biochemical, Agrobacterium tumefaciens; details: other: V48Y, pH 7.0, 200 μM chorismate, 0.1–2 mM L-glutamine, 25.0 °C
Description: as §1, §2, §3, §4

Compound: N[C@@H](Cc1c[nH]c2ccccc12)C(=O)O [L-tryptophan]
- IC50 [1]: 150 µM
- IC50 [2]: 0.1 µM
- IC50 [3]: 41 µM
- IC50 [4]: > 32000 µM
- IC50 [5]: 5 µM
- IC50 ([5]; read-out: IC50^trp, wild type, Table J (5-MT resistant clones)): 5 µM
- IC50 [6]: 14 µM
- IC50 [7]: 17 µM
- IC50 [8]: 650 µM
- IC50 [9]: 1500 µM

Compound: Agrobacterium tumefaciens anthranilate synthase variant V48F, SEQ ID NO:58 (Agrobacterium fabrum str. C58; V48F)
- Km [10]: 4.5 µM
- kcat [10]: 0.24 s⁻¹
- kcat/Km [10]: 53300 M⁻¹ s⁻¹
- Km (NC(=O)CC[C@H](N)C(=O)O [11]): 80 µM

Compound: Agrobacterium tumefaciens anthranilate synthase variant V48Y, SEQ ID NO:59 (Agrobacterium fabrum str. C58; V48Y)
- Km [12]: 4.2 µM
- kcat [12]: 0.18 s⁻¹
- kcat/Km [12]: 42800 M⁻¹ s⁻¹
- Km (NC(=O)CC[C@H](N)C(=O)O [13]): 100 µM
